Laboratory results taken from patent US20220089592A1, “IMIDAZO[1,2-A]PYRIDINYL DERIVATIVES AS IRAK4 INHIBITORS” (priority 2019, published 2022).

Molecular target: T1, IRAK4 (Homo sapiens, UniProt Q9NWZ3)
T1 sequence (Q9NWZ3 1-460): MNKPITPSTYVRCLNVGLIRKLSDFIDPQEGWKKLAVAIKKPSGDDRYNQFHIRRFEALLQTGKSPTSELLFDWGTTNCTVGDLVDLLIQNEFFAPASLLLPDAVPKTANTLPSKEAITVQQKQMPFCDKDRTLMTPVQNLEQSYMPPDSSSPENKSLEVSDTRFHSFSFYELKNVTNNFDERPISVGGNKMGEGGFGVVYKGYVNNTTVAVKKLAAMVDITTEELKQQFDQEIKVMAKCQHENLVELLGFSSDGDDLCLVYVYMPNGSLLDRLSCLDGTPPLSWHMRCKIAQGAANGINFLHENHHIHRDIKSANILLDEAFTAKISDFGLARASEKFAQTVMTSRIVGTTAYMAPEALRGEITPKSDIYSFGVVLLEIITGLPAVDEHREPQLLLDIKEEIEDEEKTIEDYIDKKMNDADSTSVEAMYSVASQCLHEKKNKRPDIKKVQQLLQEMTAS
Experiment: 2-hour 1 mM ATP IRAK4 Biochemical assay (as above, but with 100 pM IRAK4 and 1 mM ATP)
Conditions: IRAK4 MSD BIOCHEMICAL (1 mM ATP) IC50 (μM), 100 pM IRAK4, 2 hours
Summary of the method: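 Run with 100 pM IRAK4 and 1 mM ATP for 2 hours, quenched with EDTA pH 8. Phosphorylated biotinylated peptide captured on streptavidin MSD plates and detected with anti-phosphothreonine antibody plus Sulfo-Tag secondary by electrochemiluminescence.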

Row | SMILES | IC50 [µM]
1 | CCOc1cc(NC(=O)c2cccc(C(F)F)n2)cn2cc([C@@H]3C4COC[C@H]43)nc12 (relative stereo) [Example 306, N-(2-((1R*,5S*,6s*)-3-oxabicyclo[3.1.0]hexan-6-yl)-8-ethoxyimidazo[1,2-a]pyridin-6-yl)-6-(difluoromethyl)picolinamide] | 0.007
2 | COc1c(NC(=O)c2cccc(C(F)F)n2)cn2cc(C34COC(C)(C3)C4)nc2c1C [Example 295, 6-(difluoromethyl)-N-(7-methoxy-8-methyl-2-(1-methyl-2-oxabicyclo[2.1.1]hexan-4-yl)imidazo[1,2-a]pyridin-6-yl)picolinamide] | 0.004
3 | CCOc1cc2nc(C3C4COCC43)cn2cc1NC(=O)c1coc(C(F)F)n1 (stereo not shown) [Example 376, N-(2-(3-oxabicyclo[3.1.0]hexan-6-yl)-7-ethoxyimidazo[1,2-a]pyridin-6-yl)-2-(difluoromethyl)oxazole-4-carboxamide 2,2,2-trifluoroacetate] | 0.009
4 | CC(C)Oc1cc2nc(C(C)(C)C(=O)O)cn2cc1NC(=O)c1cccc(C(F)F)n1 [Example 262, 2-(6-(6-(difluoromethyl)picolinamido)-7-isopropoxyimidazo[1,2-a]pyridin-2-yl)-2-methylpropanoic acid] | 0.006
5 | COCCn1ccc(C(=O)Nc2cn3cc(C4CCOCC4)nc3cc2OC(C)C)n1 [Example 383, N-(7-isopropoxy-2-(tetrahydro-2H-pyran-4-yl)imidazo[1,2-a]pyridin-6-yl)-1-(2-methoxyethyl)-1H-pyrazole-3-carboxamide 2,2,2-trifluoroacetate] | 0.014
6 | CC(C)Oc1cc2nc(C3CCOCC3)cn2cc1NC(=O)c1coc(C2CCOCC2)n1 [Example 387, N-(7-isopropoxy-2-(tetrahydro-2H-pyran-4-yl)imidazo[1,2-a]pyridin-6-yl)-2-(tetrahydro-2H-pyran-4-yl)oxazole-4-carboxamide 2,2,2-trifluoroacetate] | 0.001
7 | CCOc1cc2nc(C(C)C#N)cn2cc1NC(=O)c1cccc(C(F)F)n1 (stereo not shown) [Example 316, N-(2-(1-cyanoethyl)-7-ethoxyimidazo[1,2-a]pyridin-6-yl)-6-(difluoromethyl)picolinamide] | 0.003
8 | COc1cc(NC(=O)c2cccc(C(F)F)n2)cn2c(F)c(C3CCOCC3)nc12 [Example 351, 6-(difluoromethyl)-N-(3-fluoro-8-methoxy-2-(tetrahydro-2H-pyran-4-yl)imidazo[1,2-a]pyridin-6-yl)picolinamide] | 0.1
9 | COc1cc(NC(=O)c2cccc(C(F)F)n2)cn2cc([C@]3(C)C[C@@H](OC)C3)nc12 [Example 271, 6-(difluoromethyl)-N-(8-methoxy-2-((1r*,3r*)-3-methoxy-1-methylcyclobutyl)imidazo[1,2-a]pyridin-6-yl)picolinamide] | 0.016
10 | COc1ccccc1C(=O)Nc1cn2cc(C34COC(C)(C3)C4)nc2nc1OC1CC1 [Example 350, N-(7-cyclopropoxy-2-(1-methyl-2-oxabicyclo[2.1.1]hexan-4-yl)imidazo[1,2-a]pyrimidin-6-yl)-2-methoxybenzamide] | 0.006
11 | CCOc1cc2nc(C3C4COCC43)cn2cc1NC(=O)c1ccn(CC(F)(F)F)n1 (stereo not shown) [Example 235, N-(2-(3-oxabicyclo[3.1.0]hexan-6-yl)-7-ethoxyimidazo[1,2-a]pyridin-6-yl)-1-(2,2,2-trifluoroethyl)-1H-pyrazole-3-carboxamide] | 0.023
12 | COc1ncccc1C(=O)Nc1cn2cc(C34COC(C)(C3)C4)nc2c(F)c1OC1CCCC1 [Example 329] | 0.017
13 | CC12CC(c3cn4cc(NC(=O)c5coc(C6CC6)n5)nc(OC5CCC5)c4n3)(CO1)C2 [Example 340, N-(8-cyclobutoxy-2-(1-methyl-2-oxabicyclo[2.1.1]hexan-4-yl)imidazo[1,2-a]pyrazin-6-yl)-2-cyclopropyloxazole-4-carboxamide] | 0.006
14 | CC(C)Oc1cc2nc(C3CCOCC3)cn2cc1NC(=O)c1cc2ncccn2n1 [Example 382, N-(7-isopropoxy-2-(tetrahydro-2H-pyran-4-yl)imidazo[1,2-a]pyridin-6-yl)pyrazolo[1,5-a]pyrimidine-2-carboxamide 2,2,2-trifluoroacetate] | 0.022
15 | CCOc1cc2nc(C3C4COCC43)cn2cc1NC(=O)c1ccn(C2CC2(F)F)n1 (stereo not shown) [Example 374, N-(2-(3-oxabicyclo[3.1.0]hexan-6-yl)-7-ethoxyimidazo[1,2-a]pyridin-6-yl)-1-(2,2-difluorocyclopropyl)-1H-pyrazole-3-carboxamide] | 0.002
16 | COc1nc(NC(=O)c2cccc(C3CC3)n2)cn2cc(C3CCOCC3)nc12 [Example 334, 6-cyclopropyl-N-(8-methoxy-2-(tetrahydro-2H-pyran-4-yl)imidazo[1,2-a]pyrazin-6-yl)picolinamide] | 0.008
17 | COc1ncccc1C(=O)Nc1cn2cc(C34COC(C)(C3)C4)nc2cc1C(F)F [Example 391, N-(7-(difluoromethyl)-2-(1-methyl-2-oxabicyclo[2.1.1]hexan-4-yl)imidazo[1,2-a]pyridin-6-yl)-2-methoxynicotinamide 2,2,2-trifluoroacetate] | 0.021
18 | CC12CC(c3cn4cc(NC(=O)c5cccc(C(F)F)n5)nc(O)c4n3)(CO1)C2 [Example 200, 6-(difluoromethyl)-N-(8-hydroxy-2-(1-methyl-2-oxabicyclo[2.1.1]hexan-4-yl)imidazo[1,2-a]pyrazin-6-yl)picolinamide] | 0.06
19 | C[C@@H]1C[C@H](Oc2cc3nc(C4CCOCC4)cn3cc2NC(=O)c2cccc(C(F)F)n2)C[C@H](C)O1 [Example 187, 6-(difluoromethyl)-N-(7-(((2R*,4R*,6S*)-2,6-dimethyltetrahydro-2H-pyran-4-yl)oxy)-2-(tetrahydro-2H-pyran-4-yl)imidazo[1,2-a]pyridin-6-yl)picolinamide] | 0.001

More lines, now with the values ahead:

Row | IC50 [µM] | SMILES
20 | 0.092 | Cn1ccc(C(=O)Nc2cc(OC(F)F)c3nc(C45COC(C)(C4)C5)cn3c2)n1 [Example 423, N-(8-(difluoromethoxy)-2-(1-methyl-2-oxabicyclo[2.1.1]hexan-4-yl)imidazo[1,2-a]pyridin-6-yl)-1-methyl-1H-pyrazole-3-carboxamide 2,2,2-trifluoroacetate]
21 | 0.025 | CCCOc1ncccc1C(=O)Nc1cn2cc(C3CCOCC3)nc2c(OC)n1 [Example 460, N-(8-methoxy-2-(tetrahydro-2H-pyran-4-yl)imidazo[1,2-a]pyrazin-6-yl)-2-propoxynicotinamide]
22 | 0.032 | Cc1cc(NC(=O)c2cccc(C(F)F)n2)cn2cc(C34COC(C)(C3)C4)nc12 [Example 406, 6-(difluoromethyl)-N-(8-methyl-2-(1-methyl-2-oxabicyclo[2.1.1]hexan-4-yl)imidazo[1,2-a]pyridin-6-yl)picolinamide]
23 | 0.006 | COc1nc(NC(=O)c2cccc(C(F)F)n2)cn2cc(C3CC4(CCOC4)C3)nc12 (stereo not shown) [Example 557, 6-(difluoromethyl)-N-(8-methoxy-2-(6-oxaspiro[3.4]octan-2-yl)imidazo[1,2-a]pyrazin-6-yl)picolinamide 2,2,2-trifluoroacetate]
24 | 0.001 | Cc1cccc(C(=O)Nc2cn3cc(C45COC(C)(C4)C5)nc3nc2OC(C)C)c1F [Example 490, 2-fluoro-N-(7-isopropoxy-2-(1-methyl-2-oxabicyclo[2.1.1]hexan-4-yl)imidazo[1,2-a]pyrimidin-6-yl)-3-methylbenzamide]
25 | 0.002 | CC(C)Oc1cc2nc(-c3ccnn3C)cn2cc1NC(=O)c1cccc(C(F)F)n1 [Example 525, 6-(difluoromethyl)-N-(7-isopropoxy-2-(1-methyl-1H-pyrazol-5-yl)imidazo[1,2-a]pyridin-6-yl)picolinamide]
26 | 0.005 | CC(C)Oc1nc(NC(=O)c2cccc3ncnn23)cn2cc(C34COC(C)(C3)C4)nc12 [Example 480, N-(8-isopropoxy-2-(1-methyl-2-oxabicyclo[2.1.1]hexan-4-yl)imidazo[1,2-a]pyrazin-6-yl)-[1,2,4]triazolo[1,5-a]pyridine-5-carboxamide]
27 | 0.003 | COc1c(NC(=O)c2cccc(C(F)F)n2)cn2cc(C3CCOCC3)nc2c1C [Example 427, 6-(difluoromethyl)-N-(7-methoxy-8-methyl-2-(tetrahydro-2H-pyran-4-yl)imidazo[1,2-a]pyridin-6-yl)picolinamide]
28 | 0.043 | COc1nc(NC(=O)c2cccc(C)n2)cn2cc(C3CCOCC3)nc12 [Example 455, N-(8-methoxy-2-(tetrahydro-2H-pyran-4-yl)imidazo[1,2-a]pyrazin-6-yl)-6-methylpicolinamide]
29 | 0.001 | CCOc1cc2nc(C34COCC3C4)cn2cc1NC(=O)c1cccc(C(F)F)n1 (stereo not shown) [Example 518, N-(2-(3-oxabicyclo[3.1.0]hexan-1-yl)-7-ethoxyimidazo[1,2-a]pyridin-6-yl)-6-(difluoromethyl)picolinamide]
30 | 0.054 | COc1nc2nc(C34CC(F)(C3)C4)cn2cc1NC(=O)c1cccc(C(F)F)n1 [Example 566, 6-(difluoromethyl)-N-(2-(3-fluorobicyclo[1.1.1]pentan-1-yl)-7-methoxyimidazo[1,2-a]pyrimidin-6-yl)picolinamide 2,2,2-trifluoroacetate]
31 | 0.017 | COc1nc(NC(=O)c2cccc(C(F)F)n2)cn2cc(C34CC(C(F)F)(C3)C4)nc12 [Example 552, 6-(difluoromethyl)-N-(2-(3-(difluoromethyl)bicyclo[1.1.1]pentan-1-yl)-8-methoxyimidazo[1,2-a]pyrazin-6-yl)picolinamide 2,2,2-trifluoroacetate]
